# Data taken from US7288573B2, “Method of repelling insects” (priority 2001, dated 2007).
# Tests used:
# Type in all cases: in vivo
# [1] = Observation on the investigator's skin after application (Example 6); conditions: applied at full strength (100%) to hand/arm
# cockroaches = assay: Cockroach repellency, paste floor wax with 2-undecanone; conditions: one percent by weight in paste floor wax
# Description: A commercially available paste floor wax is combined with one percent by weight of 2-undecanone and the two ingredients mixed thoroughly together. The paste floor wax is then applied to a region of flooring and buffed. The same paste floor wax, without 2-undecanone, is applied to an adjacent region of flooring in the same amount and also buffed.
# Culex spp. = assay: Mosquito repellency of 2-undecanone versus DEET, treated cloth on forearm (Example 8); conditions: 5% and 20% in ethyl alcohol sprayed onto cloth; landings in 5 minutes
# Experimental: 2-undecanone was dissolved in ethyl alcohol (v/v at 5% and 20%) and approximately 1 ml was sprayed onto cloth that was then wrapped around the investigator's forearm prior to insertion into a 59 cm×55 cm×59 cm mosquito cage containing approximately 100 Culex spp. adult mosquitoes. DEET was a formulated, commercial product (Cutter). The number of mosquito landings in 5 minutes was recorded as well as the overall behavior response of the mosquitoes. […] The most impressive evidence of this repellent effect was the observation that the mosquitoes immediately disperse away from the treated arm and actually stop flying, instead lining up on the wire screen of the cage.
# The results are shown in FIG. 5 as a graph of repellency as a function of time for 0 hr, 3 hr and 6 hr post-application of the formulations (i) 21% DEET, (ii) 20% 2-undecanone (IBI-246) and (iii) 5% 2-undecanone (IBI-246), where repellency={[# mosquito landings in Control test/# mosquitoes present in Control)−(# mosquito landings in Experiment/# mosquitoes present in Experiment)] divided by (# mosquito landings in Control test/# mosquitoes present in Control)}×100.
# Aedes taeniorhynchus = assay: Mosquito repellency of undecanone, treated gauze glove in cage
# Experimental: Forty milliliters of a 2.5 percent solution of undecanone in absolute ethanol was added to a gauze glove (20×15 centimeters) in a 250 milliliter beaker. After soaking for 1 minute, the glove was laid onto aluminum foil in a fume hood for 13 minutes and then suspended by one end from the sash of the fume hood for 3 minutes. The ethanol appeared to be completely evaporated after this treatment as determined by touch. […] The same treatment was used without undecanone as a control. After the same drying steps, no odor of ethanol could be detected by smell. The control glove was the same physical dimensions and made from the same batch of material as the treatment. […]
# Approximately 100 adult male and female mosquitoes (Aedes taeniorhynchus) (exact sex ratio not determined) were placed in a 12×12×14.5 inch stainless steel screened cage. […]
# The following data are the control responses when the tester's hand covered by the ethanol treated (dried) glove was placed into the mosquito cage (at room temperature) for 20 seconds at the times indicated: 0 minutes, 10 landings and 1 bite; 10 minutes, 9-12 landings and 1 bite; 20 minutes, approximately 13 landings and no bites; and 40 minutes, approximately 13 landings and no bites. […] However, only sustained landings of about 5 seconds were recorded as a positive response along with actual bites. […]
Compound,skin irritation on application [1],time cockroaches spend in treated region versus control region of flooring (cockroaches),concentrations with the strongest repellent effect (Culex spp.),"landings and bites (Aedes taeniorhynchus; glove soaked in 2.5 percent solution in ethanol, dried, hand in cage 20 seconds at 0 minutes to 4 hours and 40 minutes)","host seeking behavior (Aedes taeniorhynchus; glove soaked in 2.5 percent solution, first 3 to 4 hours)"
CCCCCCCCCCCC(C)=O [2-tridecanone],mildly irritating,–,–,–,–
CCCCCCCCCC(C)=O [2-undecanone],–,spend less time in the region containing 2-undecanone,strongest effect at the 20% and 5% concentrations,No landings and no bites,no host seeking behavior
